According to ChEMBL document CHEMBL1201862, “PubChem BioAssay data set” (2004):
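Following 48 hours of exposure in 96-well plates, responses at five concentrations were used to interpolate endpoints linearly. GI50 = concentration required for 50% inhibition of growth.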 Calls of active or inactive are those of the source. No stated cut-off is given here; in the data, active = GI50 up to about 1.1 µM and inactive = higher.

Key:
Test in all cases: inhibition of tumour cell growth, NCI panel, 48 h
786-0 = system: 786-0
A498 = system: A498
BT-549 = system: BT-549
HCT-116 = system: HCT-116
HOP-92 = system: HOP-92
HT-29 = system: HT-29
LOX IMVI = system: LOX IMVI
M14 = system: M14
MCF7 = system: MCF7
Malme-3M = system: Malme-3M
NCI-H226 = system: NCI-H226
NCI-H23 = system: NCI-H23
NCI-H460 = system: NCI-H460
OVCAR-5 = system: OVCAR-5
OVCAR-8 = system: OVCAR-8
SF-539 = system: SF-539
SK-OV-3 = system: SK-OV-3
T47D = system: T47D
UACC-257 = system: UACC-257
UO-31 = system: UO-31

Measured: GI50

CCOC(=O)C1(C#N)C(=O)c2cc[n+](CC[n+]3ccc4c(c3)C(=O)C(C#N)(C(=O)OCC)C4=O)cc2C1=O (configuration not stated)
inactive: 786-0 > 100 µM | A498 > 100 µM | BT-549 > 100 µM | HCT-116 > 100 µM | HOP-92 > 100 µM | HT-29 > 100 µM | LOX IMVI 74.1 µM | M14 > 100 µM | MCF7 > 100 µM | Malme-3M 60.4 µM | NCI-H226 > 100 µM | NCI-H23 > 100 µM | NCI-H460 > 100 µM | OVCAR-5 > 100 µM | OVCAR-8 > 100 µM | SF-539 > 100 µM | SK-OV-3 > 100 µM | T47D 53.3 µM | UACC-257 > 100 µM | UO-31 > 100 µM

CC(C)(CO)CNc1cc(Cl)nc(N)n1
inactive: 786-0 > 100 µM | A498 > 100 µM | BT-549 > 100 µM | HCT-116 > 100 µM | HOP-92 > 100 µM | HT-29 > 100 µM | LOX IMVI > 100 µM | MCF7 > 100 µM | Malme-3M > 100 µM | NCI-H226 > 100 µM | NCI-H23 > 100 µM | NCI-H460 > 100 µM | OVCAR-5 > 100 µM | OVCAR-8 > 100 µM | SF-539 > 100 µM | T47D 43.2 µM | UACC-257 > 100 µM | UO-31 > 100 µM

CCOC(=O)COc1ccc2c(C)cc(=O)oc2c1
inactive: 786-0 > 100 µM | A498 > 100 µM | BT-549 > 100 µM | HCT-116 > 100 µM | HOP-92 > 100 µM | HT-29 > 100 µM | LOX IMVI > 100 µM | M14 > 100 µM | MCF7 > 100 µM | Malme-3M > 100 µM | NCI-H226 > 100 µM | NCI-H23 > 100 µM | NCI-H460 45.8 µM | OVCAR-5 > 100 µM | OVCAR-8 > 100 µM | SF-539 > 100 µM | T47D > 100 µM | UACC-257 > 100 µM | UO-31 > 100 µM

O=C1C(Cl)C2(CC(/C=C/c3ccccc3Cl)=NN2c2cccc(S(=O)(=O)O)c2)N1c1nc2ccccc2s1 (configuration not stated)
inactive: 786-0 21.9 µM | A498 66.7 µM | BT-549 > 100 µM | HCT-116 49.7 µM | HOP-92 36.6 µM | HT-29 98.2 µM | LOX IMVI 12.4 µM | M14 72.6 µM | MCF7 21.6 µM | Malme-3M 27 µM | NCI-H226 30.2 µM | NCI-H23 33.6 µM | NCI-H460 63.5 µM | OVCAR-5 > 100 µM | OVCAR-8 26.5 µM | SF-539 7.67 µM | T47D 11.3 µM | UACC-257 66.8 µM | UO-31 4.82 µM

CC(=O)NC(Cc1ccc(O)cc1)C(=O)O (configuration not stated)
inactive: 786-0 > 100 µM | A498 > 100 µM | BT-549 > 100 µM | HCT-116 > 100 µM | HOP-92 > 100 µM | HT-29 > 100 µM | LOX IMVI > 100 µM | M14 > 100 µM | MCF7 > 100 µM | Malme-3M > 100 µM | NCI-H226 > 100 µM | NCI-H23 > 100 µM | NCI-H460 > 100 µM | OVCAR-5 > 100 µM | OVCAR-8 > 100 µM | SK-OV-3 > 100 µM | T47D > 100 µM | UACC-257 > 100 µM | UO-31 > 100 µM

CC1(C)OC(=O)CC12CCN(Cc1ccccc1)CC2
inactive: 786-0 > 100 µM | A498 > 100 µM | BT-549 > 100 µM | HCT-116 > 100 µM | HOP-92 > 100 µM | HT-29 > 100 µM | LOX IMVI > 100 µM | MCF7 > 100 µM | Malme-3M > 100 µM | NCI-H226 > 100 µM | NCI-H23 > 100 µM | OVCAR-5 > 100 µM | OVCAR-8 > 100 µM | SF-539 > 100 µM | SK-OV-3 > 100 µM | T47D > 100 µM | UACC-257 > 100 µM | UO-31 > 100 µM

Cc1ccc(O)c(C(c2ccc(C(c3cc(C)ccc3O)c3cc(C)ccc3O)cc2)c2cc(C)ccc2O)c1
inactive: 786-0 1.67 µM | A498 1.56 µM | BT-549 2.01 µM | HCT-116 1.67 µM | HOP-92 2.32 µM | HT-29 1.87 µM | LOX IMVI 1.69 µM | M14 1.8 µM | MCF7 2.31 µM | Malme-3M 1.88 µM | NCI-H226 1.86 µM | NCI-H23 1.79 µM | OVCAR-5 1.84 µM | OVCAR-8 1.81 µM | SF-539 1.75 µM | SK-OV-3 1.68 µM | T47D 1.75 µM | UACC-257 1.85 µM | UO-31 1.85 µM
